Biological target: T1, CCR9 (Homo sapiens, UniProt P51686)
T1 construct: chemokine expressing cells (such as THP-1 cells for CCR2 assay or MOLT-4 cells for CCR9 assay); host or cells: MOLT-4
T1 sequence (P51686 1-369): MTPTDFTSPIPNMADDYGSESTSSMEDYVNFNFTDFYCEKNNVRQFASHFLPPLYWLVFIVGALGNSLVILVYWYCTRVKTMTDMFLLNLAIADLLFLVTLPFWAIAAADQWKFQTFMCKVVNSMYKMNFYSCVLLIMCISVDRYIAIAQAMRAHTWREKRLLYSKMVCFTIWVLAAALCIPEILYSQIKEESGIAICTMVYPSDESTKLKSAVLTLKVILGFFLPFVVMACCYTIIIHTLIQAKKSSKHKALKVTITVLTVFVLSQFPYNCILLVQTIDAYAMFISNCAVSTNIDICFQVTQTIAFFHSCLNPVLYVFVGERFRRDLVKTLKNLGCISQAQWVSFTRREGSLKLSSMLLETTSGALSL
Experiment: CCR9 activity in one of the chemotaxis, binding or calcium mobilization assays
Assay type: cell-based
Conditions: assay not specified per compound
Experimental: Conventional migration assay was used to determine the efficacy of potential receptor antagonists in blocking migration mediated through chemokines (such as CCR2 or CCR9). This assay was routinely performed using the ChemoTX® microchamber system with a 5-μm pore-sized polycarbonate membrane. To begin such an assay, chemokine expressing cells (such as THP-1 cells for CCR2 assay or MOLT-4 cells for CCR9 assay) were harvested by centrifugation of cell suspension at 1000 RPM on a GS-6R Beckman centrifuge. The cell pellet was resuspended in chemotaxis buffer (HBSS with 0.1% BSA) at 10×10^6 cells/mL for CCR2 assay (5×10^6 cells/mL for CCR9 assay). Test compounds at desired concentrations were prepared from 10 mM stock solutions by serial dilutions in chemotaxis buffer. An equal volume of cells and compounds were mixed and incubated at room temperature for 15 minutes. Afterwards, 20 μL of the mixture was transferred onto the porous membrane of a migration microchamber, with 29 μL of chemokine ligand (0.1 nM chemokine MCP-1 protein for CCR2 assay or […] chemokine TECK protein for CCR9 assay) placed at the lower chamber. Following an incubation at 37° C. (90-minute for CCR2; 150-minute for CCR9), during which cells migrated against the chemokine gradient, the assay was terminated by removing the cell drops from atop the filter. To quantify cells migrated across the membrane, 5 μL of 7×CyQUANT® solution was added to each well in the lower chamber, and the fluorescence signal measured on a Spectrafluor Plus fluorescence plate reader (TECAN, Durham, N.C.). The degree of inhibition was determined by comparing migration signals between compound-treated and untreated cells. IC50 calculation was further performed by non-linear squares regression analysis using Graphpad Prism (Graphpad Software, San Diego, Calif.).
Calcium flux assay measures an increase in intracellular calcium following ligand-induced receptor activation. In the screen of chemokine antagonists, it was used as a secondary assay carried out on a FLIPR® machine (Molecular Devices, Mountain View, Calif.). To begin an assay, chemokine expressing cells (such as THP-1 cells for CCR2 assay or MOLT-4 cells for CCR9 assay) were harvested by centrifugation of cell suspension, and resuspended to 1.5×10^6 cells/mL in HBSS (with 1% fetal calf serum). Cells were then labeled with a calcium indicator dye Fluo-4 AM for 45 minutes at 37° C. with gentle shaking. Following incubation, cells were pelletted, washed once with HBSS and resuspended in the same buffer at a density of 1.6×10^6 cells/mL. One hundred microliters of labeled cells were mixed with 10 μL of test compound at the appropriate concentrations on an assay plate. Chemokine protein (MCP-1 at a final concentration of 0.1 nM for CCR2 assay or TECK at a final concentration of 25 nM for CCR9 assay) to activate the receptor. The degree of inhibition was determined by comparing calcium signals between compound-treated and untreated cells. IC50 calculations were further performed by non-linear squares regression analysis using Graphpad Prism (Graphpad Software, San Diego, Calif.). […]
In the tables below, structures and activity are provided for representative compounds described herein. Activity is provided as follows for either or both of the chemotaxis assay and/or calcium mobilization assays, described above.

| IC50 [nM] | SMILES |
| --- | --- |
| < 1000 | CC(C)n1cnnc1-c1cc(Cl)ccc1NS(=O)(=O)c1ccc(C(C)(C)C)cc1 [Compound 1, 4-tert-butyl-N-(4-chloro-2-(4-isopropyl-4H-1,2,4-triazol-3-yl)phenyl)benzenesulfonamide] |
| < 1000 | CC(C)(C)c1ccc(S(=O)(=O)Nc2ccc(Cl)cc2-c2nncn2-c2ccccc2)cc1 [Compound 2, 4-tert-butyl-N-(4-chloro-2-(4-phenyl-4H-1,2,4-triazol-3-yl)phenyl)benzenesulfonamide] |
| < 1000 | Cc1nnc(-c2cc(Cl)ccc2NS(=O)(=O)c2ccc(C(C)(C)C)cc2)n1C(C)C [Compound 3, 4-tert-butyl-N-(4-chloro-2-(4-isopropyl-5-methyl-4H-1,2,4-triazol-3-yl)phenyl)benzenesulfonamide] |
| < 1000 | Cc1nnc(-c2cc(Cl)ccc2NS(=O)(=O)c2ccc(C(C)(C)C)cc2)n1-c1ccccc1 [Compound 4, 4-tert-butyl-N-(4-chloro-2-(5-methyl-4-phenyl-4H-1,2,4-triazol-3-yl)phenyl)benzenesulfonamide] |
| < 1000 | CCn1c(C)nnc1-c1cc(Cl)ccc1NS(=O)(=O)c1ccc(C(C)(C)C)cc1 [Compound 5, 4-tert-butyl-N-(4-chloro-2-(4-ethyl-5-methyl-4H-1,2,4-triazol-3-yl)phenyl)benzenesulfonamide] |
| < 1000 | Cc1nnc(-c2cc(Cl)ccc2NS(=O)(=O)c2ccc(C(C)(C)C)cc2)n1C [Compound 6, 4-tert-butyl-N-(4-chloro-2-(4,5-dimethyl-4H-1,2,4-triazol-3-yl)phenyl)benzenesulfonamide] |
| < 1000 | Cc1nnc(-c2cc(Cl)ccc2NS(=O)(=O)c2ccc(C(C)(C)C)cc2)n1C1CC1 [Compound 7, 4-tert-butyl-N-(4-chloro-2-(4-cyclopropyl-5-methyl-4H-1,2,4-triazol-3-yl)phenyl)benzenesulfonamide] |
| < 1000 | CC(C)c1nnc(-c2cc(Cl)ccc2NS(=O)(=O)c2ccc(C(C)(C)C)cc2)n1C [Compound 8, 4-tert-butyl-N-(4-chloro-2-(5-isopropyl-4-methyl-4H-1,2,4-triazol-3-yl)phenyl)benzenesulfonamide] |
| < 1000 | Cn1c(-c2cc(Cl)ccc2NS(=O)(=O)c2ccc(C(C)(C)C)cc2)nnc1C1CCOCC1 [Compound 9] |
| < 1000 | COCc1nnc(-c2cc(Cl)ccc2NS(=O)(=O)c2ccc(C(C)(C)C)cc2)n1C [Compound 10, 4-tert-butyl-N-(4-chloro-2-(5-(methoxymethyl)-4-methyl-4H-1,2,4-triazol-3-yl)phenyl)benzenesulfonamide] |
| < 1000 | CC(C)c1nnc(-c2cc(Cl)ccc2NS(=O)(=O)c2ccc(C(C)(C)C)cc2)n1C(C)C [Compound 11, 4-tert-butyl-N-(4-chloro-2-(4,5-diisopropyl-4H-1,2,4-triazol-3-yl)phenyl)benzenesulfonamide] |
| < 1000 | Cc1nnc(-c2cc(Cl)ccc2NS(=O)(=O)c2ccc(C(C)(C)C)cc2)n1C1CCOCC1 [Compound 12] |
| < 1000 | CCc1nnc(-c2cc(Cl)ccc2NS(=O)(=O)c2ccc(C(C)(C)C)cc2)n1C(C)C [Compound 13, 4-tert-butyl-N-(4-chloro-2-(5-ethyl-4-isopropyl-4H-1,2,4-triazol-3-yl)phenyl)benzenesulfonamide] |
| < 1000 | Cc1nnc(-c2cc(Cl)ccc2NS(=O)(=O)c2ccc(C(C)(C)C)cc2)n1C1CCCC1 [Compound 14, 4-tert-butyl-N-(4-chloro-2-(4-cyclopentyl-5-methyl-4H-1,2,4-triazol-3-yl)phenyl)benzenesulfonamide] |
| < 1000 | Cc1nnc(-c2cc(Cl)ccc2NS(=O)(=O)c2ccc(OC(C)C)cc2)n1C(C)C [Compound 15, N-(4-chloro-2-(4-isopropyl-5-methyl-4H-1,2,4-triazol-3-yl)phenyl)-4-isopropoxybenzenesulfonamide] |
| < 1000 | Cc1nnc(-c2cc(Cl)ccc2NS(=O)(=O)c2ccc(C(C)(C)C)cc2)n1-c1cc[nH]n1 [Compound 16] |
